Reference: US20250228239A1, “MOLECULES HAVING PESTICIDAL UTILITY, AND INTERMEDIATES, COMPOSITIONS, AND PROCESSES, RELATED THERETO” (priority 2024, published 2025)
Like-named read-outs stand apart in the source and are kept apart here.

Key:
[1] = test system: Cabbage Looper (Trichoplusia ni, TRIPNI); assay: Bioassays on Cabbage Looper (CL), 128-well diet tray assay; format: in vivo; conditions: Trichoplusia ni, Cabbage Looper
Procedure, shortened: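 Second-instar larvae (1–5 per well) placed on artificial diet surface-treated with 50 μg/cm^2 test molecule applied in 90:10 acetone-water and dried. Held at 25° C., 14:10 light-dark, for five to seven days. Percent mortality scored per well and averaged over eight wells.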

[2] = test system: Beet Armyworm (Spodoptera exigua, LAPHEG); assay: Bioassays on Beet Armyworm (BAW), 128-well diet tray assay; format: in vivo; conditions: Spodoptera exigua, Beet Armyworm
Procedure, shortened: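 Eight diet wells per compound were treated at 50 μg/cm^2 (acetone-water 90:10), dried, then infested with 1–5 second-instar larvae each. After five to seven days at 25 °C under 14:10 photoperiod, mortality was scored and averaged across wells.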

[3] = Table ABC / ABC-DP rating, read-out: CL rating
[4] = Table ABC / ABC-DP rating, read-out: BAW rating

Row | Compound | pest or weed control at 50 µg/cm2 ([1]; rating class, read-out: CL) [%] | pest or weed control at 50 µg/cm2 ([2]; rating class, read-out: BAW) [%] | pest or weed control at 50 µg/cm2 [1, 3] [%] | pest or weed control at 50 µg/cm2 [2, 4] [%]
1 | O=C(Nc1ccc(F)c(NC(=O)C2CCCS2)c1F)c1cc(NC(=O)[C@H]2[C@H](c3ccc(F)c(C(F)(F)F)c3)C2(Cl)Cl)ccc1Cl (stereo partly drawn) [F1721, N-(3-(2-Chloro-5-((1R,3R)-2,2-dichloro-3-(4-fluoro-3-(trifluoromethyl)phenyl)cyclopropane-1-carboxamido)benzamido)-2,6-difluorophenyl)tetrahydrothiophene-2-carboxamide] | 50 to 100 | 50 to 100 | – | –
2 | O=C(Nc1ccc(F)c(NC(=O)C2CCCOC2)c1F)c1cc(NC(=O)[C@H]2[C@H](c3ccc(F)c(C(F)(F)F)c3)C2(Cl)Cl)ccc1Cl (stereo partly drawn) [F1722, N-(3-(2-Chloro-5-((1R,3R)-2,2-dichloro-3-(4-fluoro-3-(trifluoromethyl)phenyl)cyclopropane-1-carboxamido)benzamido)-2,6-difluorophenyl)tetrahydro-2H-pyran-3-carboxamide] | 50 to 100 | 50 to 100 | – | –
3 | O=C(CCl)Nc1c(F)ccc(NC(=O)c2cc(NC(=O)[C@H]3[C@H](c4ccc(F)c(C(F)(F)F)c4)C3(Cl)Cl)ccc2Cl)c1F [F1726, 2-Chloro-N-(3-(2-chloroacetamido)-2,4-difluorophenyl)-5-((1R,3R)-2,2-dichloro-3-(4-fluoro-3-(trifluoromethyl)phenyl)cyclopropane-1-carboxamido)benzamide] | 50 to 100 | 50 to 100 | – | –
4 | CCO[C@@H](C)C(=O)Nc1c(F)ccc(NC(=O)c2cc(NC(=O)[C@H]3[C@H](c4ccc(F)c(C(F)(F)F)c4)C3(Cl)Cl)ccc2Cl)c1F [F1731, 2-Chloro-5-((1R,3R)-2,2-dichloro-3-(4-fluoro-3-(trifluoromethyl)phenyl)cyclopropane-1-carboxamido)-N-(3-((S)-2-ethoxypropanamido)-2,4-difluorophenyl)benzamide] | 50 to 100 | 50 to 100 | – | –
5 | CCO[C@H](C)C(=O)Nc1c(F)ccc(NC(=O)c2cc(NC(=O)[C@H]3[C@H](c4ccc(F)c(C(F)(F)F)c4)C3(Cl)Cl)ccc2Cl)c1F [F1732, 2-Chloro-5-((1R,3R)-2,2-dichloro-3-(4-fluoro-3-(trifluoromethyl)phenyl)cyclopropane-1-carboxamido)-N-(3-((R)-2-ethoxypropanamido)-2,4-difluorophenyl)benzamide] | 50 to 100 | 50 to 100 | – | –
6 | CCO[C@@H](C)C(=O)Nc1c(F)ccc(NC(=O)c2cc(NC(=O)[C@H]3[C@H](c4ccc(Cl)c(Cl)c4)C3(Cl)Cl)ccc2Cl)c1F [F1733, 2-Chloro-5-((1R,3R)-2,2-dichloro-3-(3,4-dichlorophenyl)cyclopropane-1-carboxamido)-N-(3-((S)-2-ethoxypropanamido)-2,4-difluorophenyl)benzamide] | 50 to 100 | 50 to 100 | – | –
7 | CCO[C@H](C)C(=O)Nc1c(F)ccc(NC(=O)c2cc(NC(=O)[C@H]3[C@H](c4ccc(Cl)c(Cl)c4)C3(Cl)Cl)ccc2Cl)c1F [F1734, 2-Chloro-5-((1R,3R)-2,2-dichloro-3-(3,4-dichlorophenyl)cyclopropane-1-carboxamido)-N-(3-((R)-2-ethoxypropanamido)-2,4-difluorophenyl)benzamide] | 50 to 100 | 50 to 100 | – | –
8 | O=C(Nc1ccc(F)c(NC(=O)C(F)(F)C(F)(F)C(F)(F)F)c1F)c1cc(NC(=O)[C@H]2[C@H](c3ccc(F)c(Cl)c3)C2(Cl)Cl)ccc1Cl [F1741, 2-Chloro-5-((1R,3R)-2,2-dichloro-3-(3-chloro-4-fluorophenyl)cyclopropane-1-carboxamido)-N-(2,4-difluoro-3-(2,2,3,3,4,4,4-heptafluorobutanamido)phenyl)benzamide] | 50 to 100 | 50 to 100 | – | –
9 | CC1OC1C(=O)Nc1c(F)ccc(NC(=O)c2cc(NC(=O)[C@H]3[C@H](c4ccc(F)c(C(F)(F)F)c4)C3(Cl)Cl)ccc2Cl)c1F (stereo partly drawn) [F1748, N-(3-(2-Chloro-5-((1R,3R)-2,2-dichloro-3-(4-fluoro-3-(trifluoromethyl)phenyl)cyclopropane-1-carboxamido)benzamido)-2,6-difluorophenyl)-3-methyloxirane-2-carboxamide] | 50 to 100 | 50 to 100 | – | –
10 | O=C(Nc1ccc(F)cc1F)c1cc(NC(=O)[C@@H]2[C@@H](c3cc(F)c(F)c(F)c3)C2(Cl)Cl)ccc1Cl [F1749, 2-Chloro-5-((1S,3S)-2,2-dichloro-3-(3,4,5-trifluorophenyl)cyclopropane-1-carboxamido)-N-(2,4-difluorophenyl)benzamide] | 50 to 100 | 50 to 100 | – | –
11 | O=C(Nc1ccc(F)cc1F)c1cc(NC(=O)[C@H]2[C@H](c3ccc(F)c(F)c3)C2(Cl)Cl)ccc1Cl [F1750, 2-Chloro-5-((1R,3R)-2,2-dichloro-3-(3,4-difluorophenyl)cyclopropane-1-carboxamido)-N-(2,4-difluorophenyl)benzamide] | 50 to 100 | 50 to 100 | – | –
12 | O=C(Nc1ccc(F)cc1F)c1cc(NC(=O)[C@@H]2[C@@H](c3ccc(F)c(F)c3)C2(Cl)Cl)ccc1Cl [F1751, 2-Chloro-5-((1S,3S)-2,2-dichloro-3-(3,4-difluorophenyl)cyclopropane-1-carboxamido)-N-(2,4-difluorophenyl)benzamide] | 50 to 100 | 50 to 100 | – | –
13 | COC(=O)C(=O)Nc1c(F)ccc(NC(=O)c2cc(NC(=O)[C@H]3[C@H](c4ccc(F)c(C(F)(F)F)c4)C3(Cl)Cl)ccc2Cl)c1F [F1753, Methyl 2-((3-(2-chloro-5-((1R,3R)-2,2-dichloro-3-(4-fluoro-3-(trifluoromethyl)phenyl)cyclopropane-1-carboxamido)benzamido)-2,6-difluorophenyl)amino)-2-oxoacetate] | 50 to 100 | 50 to 100 | – | –
14 | CC(=O)C(=O)Nc1c(F)ccc(NC(=O)c2cc(NC(=O)[C@H]3[C@H](c4ccc(F)c(C(F)(F)F)c4)C3(Cl)Cl)ccc2Cl)c1F [F1754, 2-Chloro-5-((1R,3R)-2,2-dichloro-3-(4-fluoro-3-(trifluoromethyl)phenyl)cyclopropane-1-carboxamido)-N-(2,4-difluoro-3-(2-oxopropanamido)phenyl)benzamide] | 50 to 100 | 50 to 100 | – | –
15 | CCC(C#N)C(=O)Nc1c(F)ccc(NC(=O)c2cc(NC(=O)[C@H]3[C@H](c4ccc(F)c(C(F)(F)F)c4)C3(Cl)Cl)ccc2Cl)c1F (stereo partly drawn) [F1756, 2-Chloro-N-(3-(2-cyanobutanamido)-2,4-difluorophenyl)-5-((1R,3R)-2,2-dichloro-3-(4-fluoro-3-(trifluoromethyl)phenyl)cyclopropane-1-carboxamido)benzamide] | 50 to 100 | 50 to 100 | – | –
16 | CCOC(CC)C(=O)Nc1c(F)ccc(NC(=O)c2cc(NC(=O)[C@H]3[C@H](c4ccc(F)c(C(F)(F)F)c4)C3(Cl)Cl)ccc2Cl)c1F (stereo partly drawn) [F1757, 2-Chloro-5-((1R,3R)-2,2-dichloro-3-(4-fluoro-3-(trifluoromethyl)phenyl)cyclopropane-1-carboxamido)-N-(3-(2-ethoxybutanamido)-2,4-difluorophenyl)benzamide] | 50 to 100 | 50 to 100 | – | –
17 | CCNc1c(F)ccc(NC(=O)c2cc(NC(=O)[C@H]3[C@H](c4ccc(F)c(C(F)(F)F)c4)C3(Cl)Cl)ccc2Cl)c1F [F1762, 2-Chloro-5-((1R,3R)-2,2-dichloro-3-(4-fluoro-3-(trifluoromethyl)phenyl)cyclopropane-1-carboxamido)-N-(3-(ethylamino)-2,4-difluorophenyl)benzamide] | 50 to 100 | 50 to 100 | – | –
18 | O=C(Nc1c(F)ccc([N+](=O)[O-])c1F)c1cc(NC(=O)[C@H]2[C@H](c3cc(Cl)c(Cl)c(Cl)c3)C2(Cl)Cl)cc(F)c1F [F1765, 5-((1R,3R)-2,2-Dichloro-3-(3,4,5-trichlorophenyl)cyclopropane-1-carboxamido)-N-(2,6-difluoro-3-nitrophenyl)-2,3-difluorobenzamide] | 50 to 100 | 50 to 100 | – | –
19 | Nc1ccc(F)c(NC(=O)c2cc(NC(=O)[C@H]3[C@H](c4cc(Cl)c(Cl)c(Cl)c4)C3(Cl)Cl)cc(F)c2F)c1F [F1770, N-(3-Amino-2,6-difluorophenyl)-5-((1R,3R)-2,2-dichloro-3-(3,4,5-trichlorophenyl)cyclopropane-1-carboxamido)-2,3-difluorobenzamide] | – | – | 50 to 100 | 50 to 100
20 | O=C(COC(F)(F)F)Nc1c(F)ccc(NC(=O)c2cc(NC(=O)[C@H]3[C@H](c4cc(F)cc(C(F)(F)F)c4)C3(Cl)Cl)ccc2Cl)c1F [F1772, 2-Chloro-5-((1R,3R)-2,2-dichloro-3-(3-fluoro-5-(trifluoromethyl)phenyl)cyclopropane-1-carboxamido)-N-(2,4-difluoro-3-(2-(trifluoromethoxy)acetamido)phenyl)benzamide] | – | – | 50 to 100 | 50 to 100
21 | CC(OC(F)(F)F)C(=O)Nc1c(F)ccc(NC(=O)c2cc(NC(=O)[C@H]3[C@H](c4cc(F)cc(C(F)(F)F)c4)C3(Cl)Cl)ccc2Cl)c1F (stereo partly drawn) [F1773, 2-Chloro-5-((1R,3R)-2,2-dichloro-3-(3-fluoro-5-(trifluoromethyl)phenyl)cyclopropane-1-carboxamido)-N-(2,4-difluoro-3-(2-(trifluoromethoxy)propanamido)phenyl)benzamide] | – | – | 50 to 100 | 50 to 100
